Experimental data: US10413545B2, “Imidazolin-5-one derivative useful as FASN inhibitors for the treatment of cancer” (Janssen Pharmaceutica NV, priority 2013, dated 2019)
Like-named read-outs stand apart in the source and are kept apart here.

Tests used:
A2780 ovarian cells = assay: A2780 Ovarian Cell Proliferation Assay in Lipid Reduced Medium, with and without Palmitate (MTT); format: cell-based; details: Homo sapiens, 10% lipid-reduced serum, 96 h
Method: The biological assays described below correspond to comparative assays for ovarian cell proliferation.
2500 cells were seeded in a 96-well clear well plate in 200 μL RPM11640 with 10% Fetal Calf Serum (Hyclone), and incubated at 37° C., 5% CO2, Blanks were wells without cells. The next day the culture medium was aspirated and replaced by 160 μL culture medium with 10% Lipid-Reduced Serum (LRS, Hyclone). […] After 96 h incubation, an MTT assay was performed.
2500 cells were seeded in a 96-well clear well plate in 200 μL RPM11640 with 10% Fetal Calf Serum (Hyclone), and incubated at 37° C., 5% CO2. Blanks were wells without cells. The next day the culture medium was aspirated and replaced by 160 μL culture medium with 10% Lipid-Reduced Serum (LRS, Hyclone). 20 μL test compound (at concentrations of 30 μM, 10 μM, 3 μM, 1 μM, 0.30 μM, 0.10 μM, 0.03 μM and 0.01 μM)/DMSO dilution followed by 20 μL ethanol-BSA solution were added to a final concentrations of 0.2% DMSO, 0.2% fatty-acid-free BSA, 0.25% ethanol. After 96 h incubation an MTT assay was performed.
Raw data generated by the instrument were normalized to % Controlmin values, which were calculated as: % Controlmin=100*(x−mLC)/(mHC−mLC)
where mLC and mHC were the means of the low control wells and high control wells on the plate, after manual exclusion of outliers. A plot of Controlmin versus test compound concentration was fitted to a 4-parameter logistic curve using a non-linear least squares regression method.

[1] = system: PC-3M-Luc-C6 prostate cells; assay: In Vitro PC-3M-Luc-C6 Prostate Cell Proliferation Assay in Lipid Reduced Medium; format: cell-based; details: Prostate cell, read-out: pIC50 PC-3M-Luc-C6 prostate cell (converted); 10% lipid reduced serum, 96 h, ATP-glow luminescence
Method: PC-3M-Luc-C6 prostate cells were obtained from Xenogen Corporation. Cells were maintained in MEM supplemented with 10% Fetal Calf Serum (FCS, Hyclone), 2 mM glutamine, 1 mM sodium pyruvate, 1% BME vitamins (available from for example, Sigma Aldrich), 0.1 mM non Essential Amino Acid and 50 μg/ml Gentamicin. The cells were passaged twice a week.
The next day 10 μl test compound/DMSO diluted in medium was added (3E-5M, 1E-5M, 3E-6M,1E-6M, 3E-7M, 1E-7M, 3E-8M, 1E-8M final concentration). Compounds were tested in duplicate. After 96 h incubation at 37° C., 5% CO2 25 μl ATP-glow mix was added. The plate was incubated for 30 min at 37° C. and luminescence was measured with the Envision.
Analysis: Determination of pIC50 Values
pIC50 values were calculated as follows. Raw data generated by the instruments were normalized to % Controlmin values, which were calculated as: % Controlmin=100*(x−mLC)/(mHC−mLC),
where mLC and mHC are the means of the low control wells and high control wells on the plate, after manual exclusion of outliers. The relation between the % Controlmin values and concentration was fitted to a 4-parameter logistic curve using a non-linear least squares regression method to determine the pIC50 value. Outlying data points were excluded manually to get a correct fit. The pIC50 corresponds to −log 10(IC50), if the IC50 is expressed in molar units (http://www.ncbi.nlm.nih.qovibooks/NBK91994). The IC50 parameter was always determined by non-linear regression, but one or more of the other parameters may have been held fixed on a relevant input value, such as 0 for the bottom values.

[2] = 25 μM palmitate added (control), read-out: pIC50 With Palmitate (converted)
[3] = no palmitate, read-out: pIC50 Without Palmitate (converted)

Row | SMILES | IC50 (A2780 ovarian cells; [2]) | IC50 (A2780 ovarian cells; [3]) | IC50 [1]
1 | CC1(C)N=C(c2ccc(-c3ccc4[nH]ccc4c3)cc2)N(C[C@@H]2CCN(C(=O)C3CC3)C2)C1=O [Compound 1, (R)-2-(4-(1H-Indol-5-yl)phenyl)-1-((1-(cyclopropanecarbonyl)pyrrolidin-3-yl)methyl)-4,4-dimethyl-1H-imidazol-5(4H)-one] | > 10000 nM | 74.1 nM | –
2 | Cn1ncc2cc(-c3ccc(C4=NC(C)(C)C(=O)N4C[C@@H]4CCN(C(=O)C5CC5)C4)cc3)ccc21 [Compound 2, (R)-1-((1-(cyclopropanecarbonyl)pyrrolidin-3-yl)methyl)-4,4-dimethyl-2-(4-(1-methyl-1H-indazol-5-yl)phenyl)-1H-imidazol-5(4H)-one] | > 10000 nM | 525 nM | –
3 | CC1(C)N=C(c2ccc(-c3ccc4occc4c3)cc2)N(C[C@@H]2CCN(C(=O)C3CC3)C2)C1=O [Compound 3, (R)-2-(4-(benzofuran-5-yl)phenyl)-1-((1-(cyclopropanecarbonyl)pyrrolidin-3-yl)methyl)-4,4-dimethyl-1H-imidazol-5(4H)-one] | > 10000 nM | 1480 nM | –
4 | CC1(C)N=C(c2ccc(-c3ccc4occc4c3)cc2)N(C[C@@H]2CCN(C(=O)C3(F)CC3)C2)C1=O [Compound 4, (R)-2-(4-(benzofuran-5-yl)phenyl)-1-((1-(1-fluorocyclopropanecarbonyl)pyrrolidin-3-yl)methyl)-4,4-dimethyl-1H-imidazol-5(4H)-one] | > 10000 nM | 2750 nM | –
5 | CC1(C)N=C(c2ccc(-c3nc4ccccc4s3)cc2)N(C[C@@H]2CCN(C(=O)C3CC3)C2)C1=O [Compound 13, (R)-2-(4-(benzo[d]thiazol-2-yl)phenyl)-1-((1-(cyclopropanecarbonyl)pyrrolidin-3-yl)methyl)-4,4-dimethyl-1H-imidazol-5(4H)-one] | > 10000 nM | 3390 nM | 2090 nM
6 | CC1(C)N=C(c2ccc(-c3ccc4ncccc4c3)cc2)N(C[C@@H]2CCN(C(=O)C3CC3)C2)C1=O [Compound 64, (R)-1-((1-(cyclopropanecarbonyl)pyrrolidin-3-yl)methyl)-4,4-dimethyl-2-(4-(quinolin-6-yl)phenyl)-1H-imidazol-5(4H)-one] | > 10000 nM | 4470 nM | –
7 | Cc1cc(-c2ccc3c(c2)ncn3C)ccc1C1=NC(C)(C)C(=O)N1CC1CN(C(=O)C2(O)CC2)C1 [Compound 91, 1-((1-(1-hydroxycyclopropanecarbonyl)azetidin-3-yl)methyl)-4,4-dimethyl-2-(2-methyl-4-(1-methyl-1H-benzo[d]imidazol-5-yl)phenyl)-1H-imidazol-5(4H)-one] | > 10000 nM | 129 nM | –
8 | Cc1cc(-c2ccc3c(c2)ncn3C)ccc1C1=NC(C)(C)C(=O)N1C[C@@H]1CCN(C(=O)C2(O)CC2)C1 [Compound 92, (R)-1-((1-(1-hydroxycyclopropanecarbonyl)pyrrolidin-3-yl)methyl)-4,4-dimethyl-2-(2-methyl-4-(1-methyl-1H-benzo[d]imidazol-5-yl)phenyl)-1H-imidazol-5(4H)-one] | > 10000 nM | ~5.5 nM | –
9 | Cn1cnc2cc(-c3ccc(C4=NC(C)(C)C(=O)N4CC4CN(C(=O)C5(C)CC5)C4)c(F)c3)ccc21 [Compound 93, 2-(2-fluoro-4-(1-methyl-1H-benzo[d]imidazol-5-yl)phenyl)-4,4-dimethyl-1-((1-(1-methylcyclopropanecarbonyl)azetidin-3-yl)methyl)-1H-imidazol-5(4H)-one] | > 10000 nM | 30.9 nM | –
10 | Cc1cc(-c2ccc3cc(C#N)ccc3c2)ccc1C1=NC(C)(C)C(=O)N1CC1CN(C(=O)C2CC2)C1 [Compound 96, 6-(4-(1-((1-(cyclopropanecarbonyl)azetidin-3-yl)methyl)-4,4-dimethyl-5-oxo-4,5-dihydro-1H-imidazol-2-yl)-3-methylphenyl)-2-naphthonitrile] | > 10000 nM | ~22.4 nM | –
11 | CC1(C)N=C(c2ccc(-c3ccc4ncccc4c3)cc2)N(CC2CN(C(=O)C3CC3)C2)C1=O [Compound 98, 1-((1-(cyclopropanecarbonyl)azetidin-3-yl)methyl)-4,4-dimethyl-2-(4-(quinolin-6-yl)phenyl)-1H-imidazol-5(4H)-one] | > 10000 nM | > 10000 nM | –
12 | CC1(C)N=C(c2ccc(-c3n[nH]c4ccccc34)cc2)N(CC2CN(C(=O)C3CC3)C2)C1=O [Compound 99, 2-(4-(1H-indazol-3-yl)phenyl)-1-((1-(cyclopropanecarbonyl)azetidin-3-yl)methyl)-4,4-dimethyl-1H-imidazol-5(4H)-one] | > 10000 nM | > 10000 nM | –

More lines, now with the values ahead:

Row | IC50 (A2780 ovarian cells; [2]) | IC50 (A2780 ovarian cells; [3]) | IC50 [1] | SMILES
13 | 3310 nM | 11 nM | – | CC1(C(=O)N2CC[C@@H](CN3C(=O)C(C)(C)N=C3c3ccc(-c4ccc5cc(F)ccc5c4)cc3F)C2)CC1 [Compound 75, (R)-2-(2-fluoro-4-(6-fluoronaphthalen-2-yl)phenyl)-4,4-dimethyl-1-((1-(1-methylcyclopropanecarbonyl)pyrrolidin-3-yl)methyl)-1H-imidazol-5(4H)-one]
14 | > 10000 nM | 23.4 nM | – | Cn1ncc2cc(-c3ccc(C4=NC(C)(C)C(=O)N4C[C@@H]4CCN(C(=O)C5(O)CC5)C4)c(F)c3)ccc21 [Compound 76, (R)-2-(2-fluoro-4-(1-methyl-1H-indazol-5-yl)phenyl)-1((1-(1-hydroxycyclopropanecarbonyl)pyrrolidin-3-yl)methyl)-4,4-dimethyl-1H-imidazol-5(4H)-one]
15 | > 10000 nM | 123 nM | 70.8 nM | CC1(C)N=C(c2ccc(-c3ccc4cc(F)ccc4c3)cc2F)N(CC2CN(C(=O)C3(O)CC3)C2)C1=O [Compound 79, 2-(2-fluoro-4-(6-fluoronaphthalen-2-yl)phenyl)-1-((1-(1-hydroxycyclopropanecarbonyl)azetidin-3-yl)methyl)-4,4-dimethyl-1H-imidazol-5(4H)-one]
16 | > 10000 nM | ~14.8 nM | – | CC1(C)N=C(c2ccc(-c3ccc4cc(F)ccc4c3)cc2F)N(C[C@@H]2CCN(C(=O)C3(O)CC3)C2)C1=O [Compound 88, (R)-2-(2-fluoro-4-(6-fluoronaphthalen-2-yl)phenyl)-1-((1-(1-hydroxycyclopropanecarbonyl)pyrrolidin-3-yl)methyl)-4,4-dimethyl-1H-imidazol-5(4H)-one]
17 | > 10000 nM | 6.76 nM | – | Cn1cnc2cc(-c3ccc(C4=NC(C)(C)C(=O)N4C[C@@H]4CCN(C(=O)C5(O)CC5)C4)c(F)c3)ccc21 [Compound 89, (R)-2-(2-fluoro-4-(1-methyl-1H-benzo[d]imidazol-5-yl)phenyl)-1-((1-(1-hydroxycyclopropanecarbonyl)pyrrolidin-3-yl)methyl)-4,4-dimethyl-1H-imidazol-5(4H)-one]
18 | > 10000 nM | ~2.95 nM | – | Cn1cnc2cc(-c3ccc(C4=NC(C)(C)C(=O)N4C[C@@H]4CCN(C(=O)C5(C)CC5)C4)c(F)c3)ccc21 [Compound 90, (R)-2-(2-fluoro-4-(1-methyl-1H-benzo[d]imidazol-5-yl)phenyl)-4,4-dimethyl-1-((1-(1-methylcyclopropanecarbonyl)pyrrolidin-3-yl)methyl)-1H-imidazol-5(4H)-one]
19 | > 10000 nM | 100 nM | – | Cn1cnc2cc(-c3ccc(C4=NC(C)(C)C(=O)N4CC4CN(C(=O)C5(O)CC5)C4)c(F)c3)ccc21 [Compound 94, 2-(2-fluoro-4-(1-methyl-1H-benzo[d]imidazol-5-yl)phenyl)-1-((1-(1-hydroxycyclopropanecarbonyl)azetidin-3-yl)methyl)-4,4-dimethyl-1H-imidazol-5(4H)-one]
20 | > 10000 nM | ~5.37 nM | – | Cn1cc(-c2ccc(-c3ccc(C4=NC(C)(C)C(=O)N4C[C@@H]4CCN(C(=O)C5(O)CC5)C4)c(F)c3)cc2)cn1 [Compound 95, (R)-2-(3-fluoro-4′-(1-methyl-1H-pyrazol-4-yl)-[1,1′-biphenyl]-4-yl)-1-((1-(1-hydroxycyclopropanecarbonyl)pyrrolidin-3-yl)methyl)-4,4-dimethyl-1H-imidazol-6(4H)-one]
